Reference: patent publication US20260139007A1, “EPHA4 ANTAGONISTS AND USES THEREOF” (SANFORD BURNHAM PREBYS MEDICAL DISCOVERY INSTITUTE, priority 2023, published 2026)
Values joined by “and” are separate entries in the source; they are usually repeats but may differ in a detail not shown here. Identical values can stand only once. Like-named read-outs stand apart in the source and are kept apart here. Bridge positions count the residues as written; N and C are the ends. Square brackets hold non-standard residues; d marks the D form. Peptide text beside a SMILES is read from it. * marks the point of attachment. Octanoyl = CCCCCCCC(=O)*; βAla = NCCC(=O)O

Assays:
EphA4 Fc [1] = experiment: ELISA measuring inhibition of ephrin-A5 AP binding to immobilized EphA4 Fc; design: species or system human or mouse
[2] = In vivo half-life: active compound remaining in mouse blood, deduced from apparent IC50 of plasma in the EphA4-ephrinA5 ELISA; settings: mouse; for blood concentration: 0.8 mg/mouse
Description: To examine the persistence of compounds in the blood circulation, an approach was devised to determine the concentration of compound in mouse blood by taking advantage of the ELISA measuring inhibition of EphA4-ephrinA5 interaction.
Lipidated compounds dissolved in DMSO were diluted in […] PBS (to a 5% final DMSO concentration) or in […] PBS supplemented with 20 or 40 mg/mL BSA or 6.5 mM methyl-β-cyclodextrin for intravenous or intraperitoneal injection. Neutral pH of the compound solution was verified before injection. PEGylated compounds were dissolved in […] PBS before intraperitoneal injection. Peptides were sterile filtered before administration. Blood from each mouse was collected at 3 different time points after compound injection, the first 2 times by retro-orbital bleeding and the third time by terminal cardiac bleeding under deep anesthesia. Red blood cells were removed by centrifugation from blood treated with heparin and the resulting plasma was frozen in aliquots.
For each time point, a dose-response curves by measuring inhibition of EphA4-ephrinA5 binding at different plasma dilutions was obtained.

EphA4 Fc [3] = experiment: ELISA inhibition of ephrin-A5 AP binding to EphA4 Fc in the presence of HSA, BSA or methyl-β-cyclodextrin; settings: for IC50: read-out: IC50 ± SE (n) by ELISA with HSA or BSA; for effect of HSA on potency: presence vs absence of 40 mg/mL HSA, tested in parallel
Description: To determine whether albumin binding to the lipidated compounds affects their ability to bind EphA4, the effects of delipidated human serum albumin (HSA) on the inhibitory potency of some of the compounds were examined.

[4] = Solubility of lipidated compounds; type: physicochemical
EphA4 = target: T1, EphA4 (Homo sapiens, UniProt P54764); experiment: EphA4 Y596 phosphorylation (activation) in cells stimulated with ephrinA5-Fc; type: cell-based; settings: EphA4 tyrosine phosphorylation in cells stimulated with ephrin-A5
T1 construct: expressed in transfected cells; host or cells: HEK-EphA4 cells (immortalized cells stably transfected)
Description: Immortalized cells stably transfected to express FLAG-tagged EphA4 were cultured at 37° C. in Dulbecco's Modified Eagle Medium (DMEM; #10-013-CV, Corning/Thermo Fisher Scientific) containing 10% fetal bovine serum (FBS) with 1% antibiotic-antimycotic solution (#30-004-Cl, Corning). To assess inhibition of EphA4 activation by compounds in cells, the cells were plated in 48-well plates.
For ELISAs, high binding capacity polystyrene 96-well plates were coated overnight at 4° C. with 1 μg/mL goat anti-FLAG antibody (#F3165, Sigma-Aldrich) in 50 μL/well borate buffer (0.1 M boric acid, 0.1 M Na borate, pH 8.7). […] OD450 was then measured.

[5] = inhibition of ephrin-A5 AP binding to EphA4 Fc, averages of all experiments, read-out: IC50 ± SE (n) by ELISA
[6] = in vivo, iv, IV (intravenous administration), read-out: In vivo half-life (converted)
[7] = ELISA inhibition of EphA4-ephrin-A5 interaction, read-out: IC50 (approximate)
[8] = in vivo, ip, IP (intraperitoneal administration), read-out: In vivo half-life (converted)
[9] = ELISA inhibition of EphA4-ephrin-A5 interaction

T1 sequence (P54764 20-986, species assumed): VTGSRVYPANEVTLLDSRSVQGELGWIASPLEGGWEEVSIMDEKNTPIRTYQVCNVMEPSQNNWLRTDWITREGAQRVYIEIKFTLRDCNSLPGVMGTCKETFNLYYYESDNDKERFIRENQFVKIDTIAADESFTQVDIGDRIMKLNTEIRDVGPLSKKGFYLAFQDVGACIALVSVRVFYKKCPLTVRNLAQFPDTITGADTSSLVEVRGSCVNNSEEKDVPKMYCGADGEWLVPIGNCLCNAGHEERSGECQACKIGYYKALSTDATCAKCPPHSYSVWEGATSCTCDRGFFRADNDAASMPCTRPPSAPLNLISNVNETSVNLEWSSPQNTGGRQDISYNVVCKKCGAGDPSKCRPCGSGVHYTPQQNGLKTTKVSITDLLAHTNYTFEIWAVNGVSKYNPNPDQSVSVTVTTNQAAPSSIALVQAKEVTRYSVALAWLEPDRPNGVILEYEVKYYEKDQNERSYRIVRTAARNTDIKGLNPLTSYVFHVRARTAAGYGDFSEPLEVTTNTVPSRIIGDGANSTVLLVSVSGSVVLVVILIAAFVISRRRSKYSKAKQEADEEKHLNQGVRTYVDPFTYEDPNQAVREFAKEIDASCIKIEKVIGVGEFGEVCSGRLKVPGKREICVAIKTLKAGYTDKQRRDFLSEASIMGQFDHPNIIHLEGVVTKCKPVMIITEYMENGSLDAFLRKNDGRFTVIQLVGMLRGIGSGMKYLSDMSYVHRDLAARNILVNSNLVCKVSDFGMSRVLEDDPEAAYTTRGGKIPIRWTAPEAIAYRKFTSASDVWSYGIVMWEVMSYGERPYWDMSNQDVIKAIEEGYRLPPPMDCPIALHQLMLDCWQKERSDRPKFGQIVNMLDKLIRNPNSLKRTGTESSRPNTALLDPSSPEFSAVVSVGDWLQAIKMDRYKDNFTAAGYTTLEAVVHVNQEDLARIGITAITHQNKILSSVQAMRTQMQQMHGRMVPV

Row | Molecule | IC50 (EphA4 Fc [1]; [5]) [µM] | half-life [2, 6] [min] | IC50 (EphA4 Fc [3]; 40 mg/mL delipidated HSA) [µM] | IC50 (EphA4 Fc [1]; [7]) | half-life [2, 8] [min] | effect of HSA on potency (EphA4 Fc [3]) | potency compared with APY-d3 (EphA4 Fc [1]; [9]) | further results
1 | CCCCCCCCCCCC(=O)NCCCC[C@H](NC(=O)CNC(=O)CNC(=O)[C@@H]1CSSC[C@H](NC(=O)[C@H](Cc2ccc(O)cc2)NC(=O)[C@@H]2CCCN2C(=O)CCN)C(=O)N[C@@H](C(C)C)C(=O)N[C@@H](Cc2ccc(O)cc2)C(=O)N[C@@H](CCCNC(=N)N)C(=O)NCCC(=O)N[C@@H](CO)C(=O)N[C@@H](Cc2c[nH]c3ccccc23)C(=O)N[C@@H](CO)C(=O)N1)C(=O)NCC(N)=O [Compound 12] | 0.24 ± 0.03 | 30 to 42 | 0.92 ± 0.18 |  |  |  |  | In vivo half-life ([2]; IV (intravenous administration)): ~30 min
2 | CCCCCCCCCCCCCC(=O)N[C@@H](CCC(=O)N[C@@H](CCC(=O)NCCCC[C@H](NC(=O)CNC(=O)CNC(=O)[C@@H]1CSSC[C@H](NC(=O)[C@H](Cc2ccc(O)cc2)NC(=O)[C@@H]2CCCN2C(=O)CCN)C(=O)N[C@@H](C(C)C)C(=O)N[C@@H](Cc2ccc(O)cc2)C(=O)N[C@@H](CCCNC(=N)N)C(=O)NCCC(=O)N[C@@H](CO)C(=O)N[C@@H](Cc2c[nH]c3ccccc23)C(=O)N[C@@H](CO)C(=O)N1)C(=O)NCC(N)=O)C(=O)O)C(=O)O [Compound 16] | 0.077 ± 0.009 |  | 1.37 | ~0.08 µM | ~120 | dramatically decreased |  | decrease in potency compared to compound 15 (EphA4 Fc [1]; C14 myristoyl vs C12 lipid, γGluγGlu spacer): 2-3 fold; effect of methyl-β-cyclodextrin on inhibitory potency (EphA4 Fc [3]; 6.5 mM methyl-β-cyclodextrin vs buffer): does not affect the inhibitory potency
3 | CCCCCCCCCCCC(=O)N[C@@H](CCC(=O)N[C@@H](CCC(=O)NCCCC[C@H](NC(=O)CNC(=O)CNC(=O)[C@@H]1CSSC[C@H](NC(=O)[C@H](Cc2ccc(O)cc2)NC(=O)[C@@H]2CCCN2C(=O)CCN)C(=O)N[C@@H](C(C)C)C(=O)N[C@@H](Cc2ccc(O)cc2)C(=O)N[C@@H](CCCNC(=N)N)C(=O)NCCC(=O)N[C@@H](CO)C(=O)N[C@@H](Cc2c[nH]c3ccccc23)C(=O)N[C@@H](CO)C(=O)N1)C(=O)NCC(N)=O)C(=O)O)C(=O)O [Compound 15] |  |  |  | ~0.05 µM and ~0.03 µM | 30 to 60 | dramatically decreased | comparable to APY-d3 | half-life ([2]; in vivo, read-out: t1/2 in mouse circulation): ~40 min; solubility [4]: acceptable solubility
4 | CCCCCCCC(=O)NCCCC[C@@H]1NC(=O)[C@H](Cc2ccc(O)cc2)NC(=O)[C@H](C(C)C)NC(=O)[C@@H](NC(=O)[C@H](Cc2ccc(O)cc2)NC(=O)[C@@H]2CCCN2C(=O)CCN)CSSC[C@@H](C(=O)NCC(=O)NCC(=O)N[C@@H](CCCNC(=N)N)C(=O)NCC(N)=O)NC(=O)[C@H](CO)NC(=O)[C@H](Cc2c[nH]c3ccccc23)NC(=O)[C@H](CO)NC(=O)CCNC1=O [Compound 5] (H-[βAla]PYCVYK(Octanoyl)[βAla]SWSCGGRG-NH2; disulfide 4-12) | 0.026 ± 0.005 | < 10 | 0.075 ± 0.024 |  |  |  |  | % of compound remaining in the blood ([2]; 10 min after intravenous injection, in PBS with 5% DMSO): 5%
5 | [Cyc (4,12)] H2N-(βA)PYCVYR(βA)SWSC(Ahx)(Ahx)(Ahx)(Pra/mPEG30-triazole)-OH (XPYCVYRXSWSCXXX; non-natural residues; cyclised or stapled) [APY-d3-PEG4] |  |  |  |  |  |  |  | t1/2 in mouse circulation ([2]; in vivo): ~660 min; blood concentration ([2]; in vivo, ip): ~9 µM; blood concentration ([2]; in vivo, ip, 20 h): ~3 µM; blood concentration ([2]; in vivo, ip, 48 h): ~0.4 µM; inhibitory potency lower than that of APY-d3 (EphA4): 2-3 fold
6 | CC[C@H](C)[C@H](NC(=O)[C@H](CC(C)C)NC(=O)[C@H](CCCNC(=N)N)NC(=O)[C@@H]1CSSC[C@H](NC(=O)[C@H](Cc2ccc(O)cc2)NC(=O)[C@@H]2CCCN2C(=O)CCN)C(=O)N[C@@H](C(C)C)C(=O)N[C@@H](Cc2ccc(O)cc2)C(=O)N[C@@H](CCCNC(=N)N)C(=O)NCCC(=O)N[C@@H](CO)C(=O)N[C@@H](Cc2c[nH]c3ccccc23)C(=O)N[C@@H](CO)C(=O)N1)C(=O)N[C@@H](CCC(=O)O)C(=O)N[C@@H](CC(=O)O)C(=O)N[C@H](C(=O)N[C@H]1CSSC[C@@H](C(=O)N[C@@H](CC(C)C)C(=O)N[C@@H](Cc2c[nH]c3ccccc23)C(=O)N[C@@H](CCC(=O)O)C(=O)N[C@@H](CC(=O)O)C(=O)N[C@@H](CC(=O)O)C(N)=O)NC(=O)CNC(=O)[C@H](Cc2c[nH]c3ccccc23)NC(=O)[C@H](CCCNC(=N)N)NC(=O)[C@@H]2CCCN2C(=O)[C@H](CC(C)C)NC1=O)[C@@H](C)CC [Compound 21] (H-[βAla]PYCVYR[βAla]SWSCRLIEDICLPRWGCLWEDD-NH2; disulfide 4-12, 19-25) | 0.018 ± 0.004 |  |  |  | ~40 |  | as potent as APY-d3 | decrease in potency in the presence of bovine serum albumin (EphA4 Fc [3]; 20 mg/mL bovine serum albumin): ~8 fold; IC50 (EphA4 Fc [3]; 20 mg/ml BSA): 0.13 ± 0.01 µM
